Experimental data taken from US5298622A, “Spiroindane opiate analogs” (priority 1993, dated 1994).
Non-standard residues stand in square brackets, D forms with d. Residues, ends and D or L forms follow the SMILES beside them. *: point of attachment. Tyr(Nα,Nα-allyl2) = C=CCN(CC=C)[C@@H](Cc1ccc(O)cc1)C(=O)*; Aib = CC(C)(N)C(=O)O

Experiments:
[1] = test system: Guinea Pig Ileal Longitudinal Muscle (GPI), mu opioid receptor; assay: cells; format: cell-based
Experimental: (§1) 1. Guinea Pig Ileal Longitudinal Muscle (GPI). Ilea from guinea pigs were taken approximately 10 cm from the ileocecal junction, and a strip of longitudinal muscle with the myenteric plexus attached was prepared by the method of H. B. Rang et al., Brit. J. Pharmacol., 22, 356 (1964). A 1 cm portion of this strip was then mounted between two platinum electrodes placed in a 10 ml organ bath and connected to an isometric transducer; contractions were recorded on a polygraph. Contractions of the ileal strip were initiated by supramaximal rectangular pulses in all preparations (80 V of 0.5 ms duration at a frequency of 0.1 Hz). Krebs bicarbonate solution containing 1.25 μM chlorpheniramine maleate was the bathing solution and was continuously bubbled with 95% O2 and 5% CO2. The organ bath was maintained at 36°-37° C. The longitudinal muscle strip was allowed to equilibrate with continuous stimulation for a minimum of 90 min. Cumulative concentration-response curves were determined after drugs were added to the bath in 10- to 50-μl amounts and washed out with two 10 ml portions of buffer after noting their maximum effects.
(§2) Concentration-response curves were obtained in the absence (control) and the presence of the antagonist are expressed as IC50 values. The IC50 ratio represents the IC50 in the presence of the antagonist divided by the control IC50 value in the same tissue. Therefore, a high IC50 ratio represents a correspondingly high degree of antagonism at a particular receptor. This IC50 ratio was employed to calculate the Ke value using the equation Ke=[antagonist]/(IC50 ratio-1). Therefore, a low Ke represents a correspondingly high degree of binding at a particular receptor.

[2] = test system: mouse vas deferens (MVD), delta opioid receptor; assay: Mouse vas deferens (MVD) assay, agonism; format: cell-based; conditions: % Inhibition at 1000 nM (footnote 4); for inhibition at 1 µM: Mus musculus
Experimental: (§3) 2. Mouse Vas (MVD). This assay was performed according to the description by G. Henderson et al., Brit. J. Pharmacol., 46, 764 (1972). Both vasa deferentia were dissected out of mice and mounted singly through two platinum ring electrodes in a 10 ml organ bath. The bath contained Krebs bicarbonate solution that was continuously bubbled with 95% O2 and 5% CO2. The organ bath was maintained at 37° C. The tissue was attached to an isometric transducer and stimulated transmurally with rectangular pulses ([…], 1 ms duration, supramaximal voltage). Drugs were added cumulatively to the bath in 10- to 50-μl amounts and washed out after noting their maximum effect.
as §2

mu opioid receptor = target: T1, mu opioid receptor (Cavia porcellus, UniProt A0ACM8Q262); assay: GPI assay, antagonism of morphine (mu); format: cell-based, guinea pig; conditions: antagonist 100 nM, 15 min; for Kb: read-out: GPI Antagonism Ke (Morphine), Ke=[antagonist]/(IC50 ratio-1); for GPI Antagonism IC50 Ratio (Morphine): agonist morphine (mu)
T1 construct: antagonism of morphine
Experimental: as §1, §2

delta opioid receptor [3] = target: T2, delta opioid receptor (Mus musculus, UniProt P32300); assay: MVD assay, antagonism of DADLE (delta); format: cell-based; conditions: for Kb: read-out: MVD Antagonism Ke (DADLE); for δ-antagonist activity (in words): δ-selective agonist; for MVD Antagonism IC50 Ratio (DADLE): antagonist 100 nM, 15 min, agonist DADLE (delta)
T2 construct: Both vasa deferentia were dissected out of mice; from tissue; host or cells: mouse vas deferens
Experimental: as §3, §2

kappa opioid receptor = target: T3, kappa opioid receptor (Cavia porcellus, UniProt P41144); assay: GPI assay, antagonism of ethylketazocine (EK, kappa); format: cell-based, guinea pig; conditions: antagonist 100 nM, 15 min; agonist ethylketazocine (kappa)
T3 construct: a strip of longitudinal muscle with the myenteric plexus attached was prepared; from tissue; host or cells: guinea pig ileum, longitudinal muscle strip with myenteric plexus
Experimental: as §1
Concentration-response curves were obtained in the absence (control) and the presence of the antagonist are expressed as IC50 values. The IC50 ratio represents the IC50 in the presence of the antagonist divided by the control IC50 value in the same tissue. […]

ethanol drinking = conditions: J. C. Froehlich et al. 1991; cited from earlier work
[4] = test system: rats selectively bred for high voluntary ethanol drinking; conditions: Ser. No. 07/750,109; cited from earlier work
delta opioid receptor [5] = conditions: U.S. Pat. No. 4,816,586; cited from earlier work
rat model of alcoholism = conditions: J. C. Froehlich et al. 1990; cited from earlier work
recovering alcoholics = conditions: J. R. Volpicelli et al. 1990; cited from earlier work
[6] = GPI, % Inhibition at 1000 nM (footnote 4)

T2 sequence (P32300 whole entry): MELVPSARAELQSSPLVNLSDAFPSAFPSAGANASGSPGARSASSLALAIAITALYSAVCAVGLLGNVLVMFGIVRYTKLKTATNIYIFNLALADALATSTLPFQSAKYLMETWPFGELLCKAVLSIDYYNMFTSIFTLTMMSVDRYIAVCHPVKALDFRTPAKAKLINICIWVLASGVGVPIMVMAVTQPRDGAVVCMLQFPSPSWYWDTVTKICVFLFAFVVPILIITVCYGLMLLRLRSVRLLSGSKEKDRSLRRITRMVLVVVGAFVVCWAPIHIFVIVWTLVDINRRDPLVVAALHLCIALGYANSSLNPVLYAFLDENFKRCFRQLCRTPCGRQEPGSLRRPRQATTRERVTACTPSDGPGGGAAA
T1 sequence (A0ACM8Q262 1-400): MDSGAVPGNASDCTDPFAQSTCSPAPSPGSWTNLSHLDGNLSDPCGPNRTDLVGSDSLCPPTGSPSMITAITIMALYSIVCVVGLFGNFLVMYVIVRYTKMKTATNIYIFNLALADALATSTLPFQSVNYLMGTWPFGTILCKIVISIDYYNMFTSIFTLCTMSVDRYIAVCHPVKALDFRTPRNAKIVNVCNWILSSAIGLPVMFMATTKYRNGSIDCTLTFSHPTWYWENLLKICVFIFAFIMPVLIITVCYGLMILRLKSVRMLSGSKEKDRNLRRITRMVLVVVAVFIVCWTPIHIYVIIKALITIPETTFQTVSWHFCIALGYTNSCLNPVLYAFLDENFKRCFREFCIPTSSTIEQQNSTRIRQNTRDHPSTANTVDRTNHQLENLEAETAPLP
T3 sequence (P41144 whole entry): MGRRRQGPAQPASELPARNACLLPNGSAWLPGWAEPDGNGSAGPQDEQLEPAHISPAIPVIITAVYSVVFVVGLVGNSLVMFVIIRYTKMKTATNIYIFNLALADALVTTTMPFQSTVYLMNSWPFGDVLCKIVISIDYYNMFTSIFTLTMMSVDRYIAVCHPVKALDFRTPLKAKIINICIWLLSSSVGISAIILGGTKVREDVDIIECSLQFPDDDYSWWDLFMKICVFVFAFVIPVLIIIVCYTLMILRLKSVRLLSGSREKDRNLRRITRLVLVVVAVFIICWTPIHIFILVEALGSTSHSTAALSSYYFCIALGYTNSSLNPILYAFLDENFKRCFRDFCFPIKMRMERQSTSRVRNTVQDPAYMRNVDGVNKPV

Molecule: 7-(4',5'-Benz-2'-spiroindano)naltrexone and 7-(6',7'-Benz-2'-spiroindano)naltrexone [Compound 3e]
- GPI Agonism % Inhibition [1, 6]: 20.3%
- MVD Agonism % Inhibition [2]: 15.6%

Molecule: 7-(4,-Methoxy-2,-spiroindano)naltrexone and 7-(7' -Methoxy-2'-spiroindano)-naltrexone [Compound 3b]
- GPI Agonism % Inhibition [1, 6]: -15.0%
- MVD Agonism % Inhibition [2]: 23.1%
- Kb (mu opioid receptor): 0.0134 µM

Molecule: 7-(5'-Methoxy-2'-spiroindano)naltrexone and 7-(6'-Methoxy-2'-spiroindano)naltrexone [Compound 3c]
- GPI Agonism % Inhibition [1, 6]: -8.8%
- MVD Agonism % Inhibition [2]: 10.5%

Molecule: O=C1[C@@H]2Oc3c(O)ccc4c3[C@@]23CCN(CC2CC2)[C@H](C4)[C@]3(O)CC12Cc1ccccc1C2 [Compound 3a]
- Kb (mu opioid receptor): 0.041 µM
- Kb (delta opioid receptor [3]): 0.00078 µM
- δ-antagonist activity (in words) (delta opioid receptor [3]): potent δ-antagonist activity

Molecule: O=C1[C@@H]2Oc3c(O)ccc4c3[C@@]23CCN(CC2CC2)[C@H](C4)[C@]3(O)CC12Cc1cc3ccccc3cc1C2 [Compound 3d, 7-(5',6'-Benz-2'-spiroindano)naltrexone]
- agonist activity for μ-receptors (in words) [1]: potent agonist activity
- IC50 ([1]; Cavia porcellus, read-out: GPI Agonism IC50): 0.253 µM
- GPI Agonism Potency (relative to morphine) ([1]; GPI, morphine = 1): 0.47
- inhibition at 1 µM [2]: 15.4%
- GPI Antagonism IC50 Ratio (Morphine) (mu opioid receptor): 0.97
- MVD Antagonism IC50 Ratio (DADLE) (delta opioid receptor [3]): 428
- Kb (delta opioid receptor [3]): 0.000234 µM
- δ-antagonist activity (in words) (delta opioid receptor [3]): most potent antagonist
- GPI Antagonism IC50 Ratio (EK) (kappa opioid receptor): 0.18

Molecule: O=C1[C@@H]2Oc3c(O)ccc4c3[C@@]23CCN(CC2CC2)[C@H](C4)[C@]3(O)CC12Cc1cccc3cccc(c13)C2 [Compound 3f, 7-(2',3'-Dihydro-2'-spiroperinaphtheno)naltrexone]
- inhibition at 1 µM ([1]; Cavia porcellus, GPI, % Inhibition at 1000 nM (footnote 4), read-out: GPI Agonism % Inhibition): 16%
- inhibition at 1 µM [2]: 13%
- GPI Antagonism IC50 Ratio (Morphine) (mu opioid receptor): 0.89
- MVD Antagonism IC50 Ratio (DADLE) (delta opioid receptor [3]): 8
- Kb (delta opioid receptor [3]): 0.0149 µM
- GPI Antagonism IC50 Ratio (EK) (kappa opioid receptor): 0.39

Molecule: C=CCN(CC=C)[C@@H](Cc1ccc(O)cc1)C(=O)NC(C)(C)C(=O)NC(C)(C)C(=O)N[C@@H](Cc1ccccc1)C(=O)N[C@@H](CC(C)C)C(=O)O [ICI 174864, N,N-diallyl-Tyr-Aib-Aib-Phe-Leu-OH] ({Tyr(Nα,Nα-allyl2)}-[Aib][Aib]FL-OH)
- duration of action (ethanol drinking): very short duration of action
- ethanol drinking (ethanol drinking): strongly inhibits ethanol drinking

Molecule: Oc1ccc2c3c1O[C@H]1c4oc5ccccc5c4C[C@@]4(O)[C@@H](C2)N(CC2CC2)CC[C@]314 [NTB]
- ethanol drinking and water intake [4]: unexpectedly prolonged suppression of ethanol drinking without altering water intake

Molecule: Oc1ccc2c3c1O[C@H]1c4[nH]c5ccccc5c4C[C@@]4(O)[C@@H](C2)N(CC2CC2)CC[C@]314 [NTI, naltrindole]
- selectivity and potency at delta receptors (delta opioid receptor [5]): highly selective
- ethanol drinking and water intake [4]: unexpectedly prolonged suppression of ethanol drinking without altering water intake

Molecule: C=CCN1CC[C@]23c4c5ccc(O)c4O[C@H]2C(=O)CC[C@@]3(O)[C@H]1C5 [Naloxone]
- ethanol and water intake (rat model of alcoholism): suppress ethanol but not water intake

Molecule: O=C1CC[C@@]2(O)[C@H]3Cc4ccc(O)c5c4[C@@]2(CCN3CC2CC2)[C@H]1O5 [naltrexone]
- incidence of relapse in recovering alcoholics (recovering alcoholics): reduce the incidence of relapse in recovering alcoholics
